The values below come from PMC4717123, “The cytochrome P450 CYP6P4 is responsible for the high pyrethroid resistance in knockdown resistance-free Anopheles arabiensis” (Insect Biochemistry and Molecular Biology, 2016).

In series [1] the target is T1, CYP6P4 (Anopheles arabiensis, UniProt A0A0M4KNY0).
T1 sequence (A0A0M4KNY0 1-506): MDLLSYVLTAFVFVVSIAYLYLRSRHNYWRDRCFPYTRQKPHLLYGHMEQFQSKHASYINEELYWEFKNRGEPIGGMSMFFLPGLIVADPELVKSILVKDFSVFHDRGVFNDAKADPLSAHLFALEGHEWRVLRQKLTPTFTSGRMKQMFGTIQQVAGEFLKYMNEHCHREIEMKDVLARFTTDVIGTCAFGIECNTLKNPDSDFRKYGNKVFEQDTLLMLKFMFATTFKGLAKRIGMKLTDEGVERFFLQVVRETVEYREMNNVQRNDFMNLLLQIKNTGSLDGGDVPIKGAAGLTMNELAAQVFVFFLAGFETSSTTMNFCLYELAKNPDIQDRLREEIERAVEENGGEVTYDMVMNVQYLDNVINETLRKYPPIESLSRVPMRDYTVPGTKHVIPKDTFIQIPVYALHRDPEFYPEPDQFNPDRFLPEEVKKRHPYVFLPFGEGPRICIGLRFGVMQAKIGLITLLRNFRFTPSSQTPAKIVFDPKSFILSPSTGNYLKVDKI
T1 sequence (Q86QH5 1-679 partner): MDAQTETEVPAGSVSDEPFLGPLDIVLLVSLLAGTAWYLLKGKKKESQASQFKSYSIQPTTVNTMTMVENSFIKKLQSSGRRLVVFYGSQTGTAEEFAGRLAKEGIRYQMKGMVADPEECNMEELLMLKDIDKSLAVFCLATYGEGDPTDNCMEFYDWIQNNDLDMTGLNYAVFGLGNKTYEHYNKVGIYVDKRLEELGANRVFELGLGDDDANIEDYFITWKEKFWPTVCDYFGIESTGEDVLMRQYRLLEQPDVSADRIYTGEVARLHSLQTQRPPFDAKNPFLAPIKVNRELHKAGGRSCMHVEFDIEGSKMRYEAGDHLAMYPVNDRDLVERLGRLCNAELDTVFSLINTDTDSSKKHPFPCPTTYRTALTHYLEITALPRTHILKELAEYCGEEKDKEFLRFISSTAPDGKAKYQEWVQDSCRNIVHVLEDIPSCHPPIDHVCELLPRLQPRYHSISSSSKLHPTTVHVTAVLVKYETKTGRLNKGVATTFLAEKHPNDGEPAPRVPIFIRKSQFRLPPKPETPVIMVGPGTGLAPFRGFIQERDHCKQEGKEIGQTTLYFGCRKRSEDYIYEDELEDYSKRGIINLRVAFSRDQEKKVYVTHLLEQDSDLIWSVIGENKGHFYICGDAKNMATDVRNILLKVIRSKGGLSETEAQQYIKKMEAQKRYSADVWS
Put plainly: In vitro metabolism assays with insecticides (percentage depletion, HPLC). It is filed as in vitro ADME. The following applies: for metabolised at 1 h, 20 µM: Anopheles arabiensis, recombinant cyp6p4. As for the experimental part:
0.2 M Tris–HCl and NADPH-regeneration components were added to the bottom of 1.5 ml tube chilled on ice. Membranes expressing recombinant CYP6P4 and AgCPR (and reconstituted with cytochrome b5) were added to the side of the tube and pre-incubated for 5 min at 30 °C, with shaking at 1200 rpm. […] Reactions were quenched with 0.1 ml ice-cold methanol and incubated for 5 more minutes to precipitate protein. Tubes were then centrifuged at 16,000 rpm and 4 °C for 15 min, and 150 μl of supernatant transferred into HPLC vials for analysis. All reactions were carried out in triplicate with experimental samples (+NADPH) and negative controls (-NADPH). […] For the other insecticides, mobile phases were 65:35 (bendiocarb) and 60:40 v/v (propoxur and malathion) acetonitrile to water, respectively with column temperature of 40 °C for bendiocarb and propoxur. Bendiocarb and propoxur were detected at 205 nm and 270 nm respectively, whilst malathion was detected at 230 nm. Enzyme activity was calculated as percentage depletion (the difference in the amount of insecticide(s) remaining in the +NADPH tubes compared with the –NADPH) and a t-test used for statistical analysis.

The subject of series [2] is An. arabiensis populations from Ndjamena. Also noted: method as in Witzig et al., 2013. The following applies: Chad, 2009, ref Witzig et al., 2013; cited from earlier work.
The target in series [3] is T1, CYP6P4. The experiment in a line: Fluorogenic probes assay (O-dealkylation, DEF kinetics). It is filed as biochemical. The following applies: 0-2 μM diethoxyfluorescein, 2 pmol enzyme, 10 min. The method, then:
To find out whether there are differences in the degree of binding of recombinant CYP6P4 to different insecticides, membrane was also tested for O-dealkylation towards seven (7) fluorogenic probes: resorufin-based 7-ethoxyresurofin (7-ER), resurofin methyl ether (RME), resorufin-benzylether (RBE) and resorufin-pentylether (RPE); coumarin-based probes: 7-ethoxy-4-trifluoromethylcoumarin (7-EFC) and 7-methoxy-4-trifluoromethylcoumarin (MFC); and diethoxyfluorescein (DEF). […] Membranes were activated for 5 min at 37 °C in fluorescence spectrophotometer FLOUstar Omega (BMG LABTECH, Ortenberg, Germany) before 25 μl NADPH regeneration buffer (1 mM glucose-6-phosphate (G6P), 0.25 mM MgCl2, 0.1 mM NADP and 1 U/ml glucose-6-phosphate dehydrogenase (G6PDH) prepared in KPi (pH 7.4) was added. All reactions were conducted in three replicates with negative control (–NADPH) devoid of the regeneration buffer. Rate of fluorescent product formation for 7-ER, RBE and RME (ʎexc = 544 nm, ʎemi = 590 nm), 7-EFC and MFC (ʎexc = 410 nm, ʎemi = 535 nm) and DEF (ʎexc = 485 nm, ʎemi = 530 nm) was determined by linear regression of measurement between 2 and 10 min after start of the reaction.
For kinetics, 0–2 μM diethoxyfluorescein was assayed with 2 pmol of recombinant enzyme in a total volume of 250 μl. The protocol was as outlined above, with varying substrate concentration. […]

For series [4], the target named is T1, CYP6P4. The experiment in a line: Inhibition assay of CYP6P4 metabolism of diethoxyfluorescein by insecticides. It is filed as biochemical. As to conditions: 0.11 μM DEF substrate, 2 pmol CYP6P4, inhibitor 25-0.011 μM, 30 °C. As for the experimental part:
To assess differences in the degree of binding of the recombinant CYP6P4 to insecticides from different classes, inhibition assay was conducted with DEF and nine insecticides (inhibitors). […] 25 μl of pre-warmed regeneration buffer (7.8 mg glucose-6-phosphate, 0.25 mM MgCl2, 1.7 mg NADP, 6 U/ml glucose-6-phosphate dehydrogenase and 2% w/v NaHCO3) was incorporated into the wells. Fluorescence was monitored for 21 cycles at interval of 1 min with shaking at every step, at 30 °C. Results were analysed with GraphPad Prism software and inhibition at each inhibitor concentration and incubation time calculated as residual control activity towards DEF.

Substrate in series [5]: CC1(C)C(C=C(Cl)Cl)C1C(=O)OCc1cccc(Oc2ccccc2)c1
Put plainly: purified protein, by the assay type. As to conditions: other: permethrin 3-30 μM, 30 min, 22.5 pmol recombinant protein. It counts as biochemical, Anopheles arabiensis. As for the experimental part: Reactions were performed in triplicates both for + NADPH (experimental tubes) and –NADPH (negative control tubes). Km and Vmax were established from the plot of substrate concentrations against the initial velocities and fitting of the data to the Michaelis–Menten module using the least squares non-linear regression, as implemented in the GraphPad Prism 6.03 Software (GraphPad Inc., La Jolla, CA, USA).

The mark [6] stands for this setting: 20 μM insecticide, 1 h incubation, 30 °C, +NADPH vs -NADPH.

Read-outs that look alike come from different tables or passages of the source.

`Cc1c(COC(=O)[C@@H]2[C@H](/C=C(\Cl)C(F)(F)F)C2(C)C)cccc1-c1ccccc1` (racemic) [bifenthrin] gave a Percentage depletion on CYP6P4 [1] (setting [6]) of 49.2%.

`CC1(C)[C@H](C(=O)O[C@H](C#N)c2cccc(Oc3ccccc3)c2)[C@@H]1/C=C(\Cl)C(F)(F)F` (racemic) [λ-cyhalothrin]: on CYP6P4 [1] (setting [6]), the metabolised at 1 h, 20 µM was determined as 57.8%.

On to `Clc1ccc(C(c2ccc(Cl)cc2)C(Cl)(Cl)Cl)cc1` [DDT], for which, in series [2], the resistance/susceptibility status result is “resistant”. At CYP6P4 [1] (20 μM DDT, 1 h, following addition of sodium cholate, p = 0.08, neither dicofol nor DDE detected), the Percentage depletion result is recorded as “up to 20%”.

Usually Km stands for the concentration of substrate that gives half-maximal velocity. With `CCOc1ccc2c(c1)Oc1cc(OCC)ccc1C21OC(=O)c2ccccc21` [DEF, diethoxyfluorescein], at CYP6P4 [3], the “Kcat (maximal catalytic activity)” value turned out to be 0.9775 s⁻¹ and the Km is 0.11 µM.

The term IC50 denotes the concentration that inhibits the measured activity by half. On to `CNC(=O)Oc1cccc2c1OC(C)(C)O2` [bendiocarb], for which the resistance/susceptibility status result in series [2] is “susceptible”. The IC50 result on CYP6P4 [4] is listed as “high IC50 values”. Also, at CYP6P4 [1] (setting [6]), the Percentage depletion result is “No activities”.

Turning to `CC1(C)[C@H](C(=O)O[C@H](C#N)c2cccc(Oc3ccccc3)c2)[C@@H]1C=C(Br)Br` [deltamethrin], in series [2], the mortality rate was 90%. In addition, the IC50 on CYP6P4 [4] (read-out: IC50) came to 2.52 µM. Further, the metabolised at 1 h, 20 µM on CYP6P4 [1] (setting [6]) is under 2%.

In the case of `ClC1=C(Cl)[C@]2(Cl)[C@@H]3[C@@H]4C[C@@H]([C@H]5O[C@@H]45)[C@@H]3[C@@]1(Cl)C2(Cl)Cl` [dieldrin], the resistance/susceptibility status entry in series [2] is reported as “susceptible”.

As for `CCOc1ccc(C(C)(C)COCc2cccc(Oc3ccccc3)c2)cc1` [etofenprox], the metabolised at 1 h, 20 µM at CYP6P4 [1] (setting [6]) is 24.9%.

In the case of `CCOC(=O)CC(SP(=S)(OC)OC)C(=O)OCC` (centres unmarked) [malathion], the resistance/susceptibility status entry in series [2] is “susceptible”. For the same molecule, on CYP6P4 [4], the half-maximal inhibitory concentration (IC50) result is listed as “high IC50 values”. On CYP6P4 [1] (setting [6]), the Percentage depletion entry is “No activities”.

Regarding `CC1(C)C(C=C(Cl)Cl)C1C(=O)OCc1cccc(Oc2ccccc2)c1` (centres unmarked) [permethrin], the half-maximal inhibitory concentration (IC50) on CYP6P4 [4] (read-out: IC50) was 0.97 µM. Further, the metabolised at 1 h, 20 µM on CYP6P4 [1] (setting [6]) is 70.5%.

As to `CNC(=O)Oc1ccccc1OC(C)C` [propoxur], the Percentage depletion result on CYP6P4 [1] (setting [6]) was “No activities”.

B1: recombinant CYP6P4 (Anopheles arabiensis) (protein)
chain: T1 sequence (A0A0M4KNY0 1-506)
As usually defined, the kcat is the maximal rate divided by the concentration of active sites. In the case of B1, in series [5], the Michaelis-Menten constant (Km) was determined as 8.07 µM, the kcat worked out at 0.054 s⁻¹ and the kcat/Km is reported as 0.4008 min^−1μM^−1.
